According to ChEMBL document CHEMBL3297738, “Anmindenols A and B, inducible nitric oxide synthase inhibitors from a marine-derived Streptomyces sp” (J Nat Prod, 2014):
Active and inactive are the calls of the source. No cut-off for these calls is given here.

Legend:
Format in all cases: functional, cell-based
RAW264.7 = test: Inhibition of LPS-induced nitric oxide production in mouse RAW264.7 cells after 20 hrs by Griess assay; conditions: RAW264.7, 20 h
A498 = test: Cytotoxicity against human A498 cells up to 100 uM
PANC-1 = test: Cytotoxicity against human PANC1 cells up to 100 uM
MiaPaCa = test: Cytotoxicity against human MiaPaCa cells up to 100 uM

IC50 (RAW264.7)	SMILES	Activity (A498)	Activity (PANC-1)	Activity (MiaPaCa)
23 µM	Cc1ccc2c(c1)/C(=C/C(C)C)C=C2CO	inactive	inactive	inactive
19 µM	Cc1ccc2c(c1)/C(=C/C(C)C)C[C@]2(O)CO	inactive	inactive	inactive
